Results from patent US4617394A, “4-methyl-5-(unsubstituted and substituted phenoxy)-2,6-dimethoxy-8-(aminoalkylamino) quinolines” (priority 1985, dated 1986).
Entries after “also recorded” stand apart in the source; their conditions may differ.

Columns and labels:
[1] = system: Plasmodium berghei KBG 173; assay: animal or person; format: in vivo, young ICR/HA Swiss mice; settings: for ΔMST: 5 mice; for Toxic death (T): number of 5 mice, 320 mg/kg
Description: Blood Schizonticidal Test (Mouse), University of Miami, Rane (suppressive)
This system is based on comparisons of responses to test compounds by Plasmodium berghei KBG 173 malaria in mice as expressed in mean survival times and the mean survival times of untreated controls. Thus, compounds noted as active produce increases in the survival times of the treated animals that are significant when compared with the survival times of untreated controls. Since an established disease is less sensitive to treatment than a disease in the early stages of development, treatment is withheld until the parasitemia is relatively high in order to insure a more reliable assay of activity and the selection of appropriate compounds for intensive preclinical studies.
Utilizing young ICR/HA Swiss mice and a standard inoculum of Plasmodium berghei KBG 173, it is possible to produce a uniform disease fatal to 100% of untreated animals within 6 to 8 days with a mean survival time of 6.2 days. Test animals weigh from 18 to 22 grams but weight variations in any given experimental or control group are confined to 2 to 3 grams. All animals in any given test are approximately of the same age. Animals on test are housed in metal-topped plastic cages, given a standard laboratory diet and water ad libitum.
Test animals receive an intraperitoneal injection of 0.5 ml of 1:100 dilution of heparinized heart's blood with a minimum of 90% parasitized cells (4×10^7 cells), drawn from donor mice infected one week earlier with Plasmodium berghei. The donor strain is maintained by weekly passages in separate groups of mice inoculated with a 0.5 ml of 1:500 dilution of heparinized heart's blood.
Test compounds are administered after dissolution or suspension in peanut oil. A single dose is given subcutaneously 72 hours after the mice are infected with Plasmodium berghei. At this time a 10-15 percent parasitemia has developed; the disease is well established but has not produced sufficient debility to alter the response of the host to toxic effects of the drug on test. Since treatment is withheld for three days to permit the infection to become well established and death occurs in untreated controls within 6 to 8 days, it is believed that this system presents a candidate compound with the maximum challenge. In order to check factors such as changes in the infectivity of Plasmodium berghei or in the susceptibility of the host or to detect technical errors, a group of infected animals treated with pyrimethamine at dose levels producing definite increases in survival time is included as a positive control in every experiment.
In each experiment test compounds are administered in graded doses. […] However, if an active drug is toxic for the host, its toxicity may become a limiting factor; continued increases in dose levels also increase the toxic effects and may result in the diminution of survival times. Deaths prior to the sixth day, when untreated controls begin to die, are regarded as non-parasitic and become the basis for the interpretation that the drug is toxic. Treated animals are kept under observation for 60 days. Survivors at the end of this period of time are considered as cured.
An increase of 100% in mean survival time is considered the minimum effective response for a candidate compound. In calculating mean survival time, toxic deaths and 60 day survivors are not included.

[2] = system: Plasmodium cynomolgi (strain B); assay: Radical Curative Test in Rhesus Monkeys, SEATO Medical Research Laboratory; format: in vivo, Indian rhesus monkeys; settings: for Radical Curative Activity, Cures (C): Table 1, Seato Rhesus
Procedure: Radical Curative Test in Rhesus Monkeys, SEATO Medical Research Laboratory, Bangkok,
This test is designed to evaluate the tissue schizonticidal (radical curative) activity of test compounds. Well-conditioned Indian rhesus monkeys of either sex weighing 2-4 Kg are utilized. Plasmodium cynomolgi (strain B) sporozoites are prepared by grinding heavily infected Anopheles dirus salivary glands in 1:1 monkey serum-saline vehicle.
Monkeys are infected by I.V. injection of 10^6 freshly isolated P. cynomolgi sporozoites on day 0. A rapidly rising parasitemia develops after a 7 to 9 day prepatient period, and administration of the test drug is initiated when the rising parasite count exceeds 5000 per mm^3 (typically day 10-12). Test drugs are administered orally (by nasogastric intubation) once daily for 7 consecutive days in aqueous solution or, if insoluble, in suspension in 0.3% methylcellulose solution. Chloroquine diphosphate (3.1 mg of base/kg orally per day) is always administered concurrently with the test drug for 7 days to eliminate blood schizonts. Thus any tissue schizonticidal activity of the test drug will always be apparent even if it lacks blood schizonticidal activity.
A vehicle control monkey and a positive drug control (primaquine) monkey are included in each group of inoculated monkeys.
The effect of the test drug is determined by counting blood parasites. Parasite counts are made daily through day 20, and every two days thereafter. Initially a clearance of blood parasites is observed due to the blood schizonticidal action of chloroquine. […] If there is no relapse within 20 days of the initial clearance of parasitemia, the monkey is splenectomized and its parasitemia followed for an additional 30 days. If there is no relapse within this period, the experiment is terminated and the monkey is considered "cured". Alternately, in some experiments, negative parasitemia was followed for 100 days without prior splenectomy. It has been determined that the splenectomy and non-splenectomy methods yield virtually identical results.
Primaquine diphosphate cures over 90% of monkeys in this test system when administered at a dose of 1.3 mg/kg of salt per day for 7 days ([…]) in combination with chloroquine.

[3] = system: Chesson strain of P. vivax; assay: Antimalarial activity against (trophozoite-induced) infections of the Chesson strain of P. vivax in the Aotus monkey; format: in vivo
[4] = system: methemoglobin; format: in vivo, Dog; settings: for Peak % MHb / Slope of MHb Formation / Time of Peak MHb / MHb Disappearance Half-Time / MHb Production as AUC Corrected for Baseline: oral capsule, days 0-3, 3 mg/kg primaquine base per day or molar equivalent; for Peak % MHb / Slope of MHb Formation / Time of Peak MHb / MHb Production as AUC Corrected for Baseline: means differ significantly (p <.05); for MHb Disappearance Half-Time: no difference in the means; for MHb Production as AUC Corrected for Baseline: total methemoglobin production
Procedure: ^a Primaquine, Comparative Compound, or Compound X, were administered
orally by capsule for four days on days 0, 1, 2 and 3 at a dose of 3 mg/k
primaquine base per day or the molar equivalent.
^e Total methemoglobin production expressed as mg of MHb/ml of
blood/hr for a total of 2 days after administration of the first dose.
^f Area under the % methemoglobin versus time curve (AUC).

[5] = system: methemoglobin; settings: background; cited from earlier work
[6] = system: Plasmodium vivax and P. ovale malaria; settings: background; cited from earlier work
[7] = Acute toxicity in the rat by oral or intraperitoneal administration; settings: Rat
[8] = system: P. berghei yoelli; assay: Causal prophylactic activity against sporozoite induced P. berghei yoelli in the mouse; format: in vivo; settings: subcutaneous
[9] = system: Plasmodium berghei KBG 173; settings: dose levels as low as; cited from earlier work
[10] = Table 2, P. cynomolgi, Rhesus, 0.10 mg/kg × 7 of salt
[11] = Table 2, P. cynomolgi, Rhesus, 0.316 mg/kg × 7 of salt
[12] = Table 2, P. cynomolgi, Rhesus, 1.0 mg/kg × 7 of salt

COc1cc(NC(C)CCCN)c2ncccc2c1 (centres unmarked) [Primaquine diphosphate, 8-(4-amino-1-methylbutylamino)-6-methoxyquinoline]
minimal effective dose ([1]; Plasmodium berghei, in Mus musculus, Table 4, read-out: active dose (active only at)): 160 mg/kg | suppressive activity in words ([1]; Rane mouse test): very weak activity at non-toxic dose levels | ΔMST ([1]; Table 1, P. berghei, Rane Mouse Test, 160 mg/kg): 9 days | Toxic death (T) ([1]; Table 1): 2/5 | ΔMST ([1]; Table 4, 160 mg/kg): 9 days | curative activity in words ([1]; Table 4, highest dose of 640 mg/kg): not curative even at the highest dose of 640 mg/kg | Toxic death (T) ([1]; Table 4): 2/5 | radical curative activity in words ([2]; 0.316 mg/kg): inactive | Cures ([2]; 1.0 mg/kg): 50% | Cures ([2]; 1.3 mg/kg): 100% | monkeys cured ([2]; 1.3 mg/kg of salt per day for 7 days (1.0 mg/kg free base), in combination with chloroquine): over 90% | Radical Curative Activity, Cures (C) ([2]; P. cynomolgi, 0.316 mg/kg (× 7)): 0/2 | Radical Curative Activity, Cures (C) ([2]; P. cynomolgi, 1.0 mg/kg (× 7)): 1/2 | Radical Curative Activity, Cures (C) ([2]; P. cynomolgi, 1.3 mg/kg (× 7)): 6/6 | Cures [2, 10]: 0/2 | Cures [2, 11]: 0/2 | Cures [2, 12]: 1/2 | Cures ([2]; Table 2, P. cynomolgi, Rhesus, 1.3 mg/kg × 7 of salt): 6/6 | Cures ([3]; 3.3 mg/kg × 3 of base): 0/10 | Cures ([3]; 13.3 mg/kg × 3 of base): 3/8 | Cures ([3]; 26 mg/kg × 3 of base): 5/6 | Peak % MHb [4]: 6.27 ± 3.86% | Slope of MHb Formation [4]: 0.93 ± 0.61 | Time of Peak MHb [4]: 3.92 ± 0.34 days | MHb Disappearance Half-Time [4]: 7.89 ± 3.30 days | MHb Production as AUC Corrected for Baseline [4]: 2,138 ± 1,484 mg of MHb/ml of blood/hr | methemoglobin formation in words [5]: cause methemoglobinemia; also recorded: Methemoglobin formation is induced | toxicity in man, in words [6]: the toxicity of primaquine precludes administration of a single curative dose | LD50 (95% Confidence Limit) ([7]; female, oral): 244 (193-260) mg/kg (Salt)

COc1cc(NC(C)CCCN)c2nccc(C)c2c1Oc1cccc(C(F)(F)F)c1.O=C(O)CCC(=O)O (centres unmarked) [Comparative Compound, 8-[(4-amino-1-methylbutyl)amino]-6-methoxy-4-methyl-5-(3-trifluoromethylphenoxy)quinoline succinate]
ΔMST ([1]; Table 4, 5 mg/kg): 6 days | ΔMST ([1]; Table 4, 10 mg/kg): 4 days | ΔMST ([1]; Table 4, 20 mg/kg): 10 days | Cures ([2]; Table 2, P. cynomolgi, Rhesus, 0.0316 mg/kg × 7 of salt): 0/2 | Cures [2, 10]: 0/2 | Cures [2, 11]: 2/2 | Cures [2, 12]: 2/2 | Molar Primaquine Index by Regression Analysis ([2]; Table 2, ratio of molar ED50, relative to primaquine): 6.8 | Cures ([3]; 1 mg/kg × 3 of base): 1/3 | Cures ([3]; 2 mg/kg × 3 of base): 5/5 | Cures ([3]; 4 mg/kg × 3 of base): 4/4 | Cures ([3]; 16 mg/kg × 3 of base): 3/3 | Cures ([8]; 2.5 mg/kg of salt): 6/15 | Cures ([8]; 10 mg/kg of salt): 8/20 | Cures ([8]; 40 mg/kg of salt): 13/15 | Cures ([8]; 160 mg/kg of salt): 5/5 | increase of peak methemoglobin level versus Compound X ([4]; Table 7, equimolar doses): 56% | peak level of methemoglobin ([4]; Table 7, equimolar doses): 25% | Peak % MHb [4]: 25.3 ± 8.30% | Slope of MHb Formation [4]: 0.55 ± 0.28 | Time of Peak MHb [4]: 9.00 ± 1.73 days | MHb Disappearance Half-Time [4]: 9.14 ± 2.42 days | MHb Production as AUC Corrected for Baseline [4]: 14,566 ± 5,475 mg of MHb/ml of blood/hr | LD50 (95% Confidence Limit) ([7]; female, I.P.): 54 (42-71) mg/kg (Salt) | LD50 (95% Confidence Limit) ([7]; female, oral): 401 (368-447) mg/kg (Salt) | LD50 (95% Confidence Limit) ([7]; male, I.P.): 86 (65-109) mg/kg (Salt)

OC(c1cc(C(F)(F)F)nc2c(C(F)(F)F)cccc12)C1CCCCN1 (centres unmarked) [mefloquine]
curative dose, Rane Mouse Test [9]: 20 mg/kg
